Experimental data: ChEMBL document CHEMBL1201862, “PubChem BioAssay data set” (2004)
Calls of active or inactive are those of the source.

Key:
Cytochrome P450 3A4 = Cytochrome P450 3A4 (Homo sapiens, UniProt P08684); conditions: Potency;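 further: confirmatory qHTS run detecting inhibitors and substrates of CYP3A4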
Salmon testes DNA = assay: acridine orange-DNA binding displacement – biochemical, fluorescence polarization, cherry-picked samples, set 2, artefact control for KSHV LANA DNA-binding inhibitor project, dose response (AID 504727); parameters: species or system Salmonidae
ORF 73 = target: T1, ORF 73 (Human herpesvirus 8, UniProt O40947); assay: KSHV LANA DNA-binding disruption – biochemical, fluorescence polarization, cherry-picked samples, dose response (AID 504725); parameters: species or system Human gammaherpesvirus 8;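 further: fluorescence polarization of a labeled DNA duplex reporting LANA DNA binding; potency is for inhibitors that block LANA binding to the DNA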
T1 sequence (O40947 whole entry): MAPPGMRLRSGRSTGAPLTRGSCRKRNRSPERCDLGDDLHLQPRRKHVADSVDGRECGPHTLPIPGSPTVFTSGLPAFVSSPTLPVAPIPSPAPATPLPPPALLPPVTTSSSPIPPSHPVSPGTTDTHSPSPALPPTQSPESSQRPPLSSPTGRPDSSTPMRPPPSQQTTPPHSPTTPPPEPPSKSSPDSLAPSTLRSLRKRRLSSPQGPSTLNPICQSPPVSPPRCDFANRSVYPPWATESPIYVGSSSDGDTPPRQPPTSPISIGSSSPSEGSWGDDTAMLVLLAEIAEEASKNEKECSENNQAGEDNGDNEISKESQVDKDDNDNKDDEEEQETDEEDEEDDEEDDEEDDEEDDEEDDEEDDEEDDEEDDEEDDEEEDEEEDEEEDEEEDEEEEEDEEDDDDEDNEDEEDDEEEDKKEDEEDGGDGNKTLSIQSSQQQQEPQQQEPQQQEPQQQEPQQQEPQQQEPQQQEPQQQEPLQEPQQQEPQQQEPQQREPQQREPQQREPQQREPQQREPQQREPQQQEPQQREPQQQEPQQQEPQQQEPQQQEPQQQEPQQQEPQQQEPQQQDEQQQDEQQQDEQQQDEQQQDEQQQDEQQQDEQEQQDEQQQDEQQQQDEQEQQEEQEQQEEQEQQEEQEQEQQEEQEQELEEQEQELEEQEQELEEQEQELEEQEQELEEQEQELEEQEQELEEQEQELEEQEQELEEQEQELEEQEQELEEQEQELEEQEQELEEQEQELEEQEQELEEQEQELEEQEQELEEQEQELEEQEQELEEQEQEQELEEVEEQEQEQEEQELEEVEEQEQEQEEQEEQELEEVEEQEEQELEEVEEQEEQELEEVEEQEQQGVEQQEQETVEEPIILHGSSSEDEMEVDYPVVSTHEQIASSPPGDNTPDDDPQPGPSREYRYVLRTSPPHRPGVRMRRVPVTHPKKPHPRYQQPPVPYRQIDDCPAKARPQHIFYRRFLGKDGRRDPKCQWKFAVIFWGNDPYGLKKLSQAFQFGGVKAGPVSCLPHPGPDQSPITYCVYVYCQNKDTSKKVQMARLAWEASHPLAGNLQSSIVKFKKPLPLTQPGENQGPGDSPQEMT

[1] = target: Lysosomal acid glucosylceramidase (Homo sapiens, UniProt P04062); assay: Dose response cell-based high throughput screening assay to identify enhancers of beta-glucosidase activity. [Related pubchem assays: 784 ]; type: functional
Trypanosoma cruzi = assay: anti-trypanosomal activity in host cells – cell-based, plate reader, dry powder, set 3, dose response (AID 493197); type: functional
[2] = mRNA 3' processing disruption, beta-gal signal increase – luminescence, S. cerevisiae SKY197-pL101, dose response (AID 2525); type: functional, cell-based
[3] = Luminescence Cell-Based Dose Confirmation HTS to Identify Inhibitors of Polyadenylation.; type: functional
Protein Rev = Protein Rev (Human immunodeficiency virus type 1 group M subtype B (isolate HXB2)(HIV-1), UniProt P04618); assay: blockers of HIV Rev/RRE RNA complex – biochemical, fluorescence polarization, HIV-1, dose response (AID 434976); parameters: species or system Human immunodeficiency virus 1
[4] = target: Female germline-specific tumor suppressor gld-1 (Caenorhabditis elegans, UniProt Q17339); assay: blockers of GLD-1/TGE RNA complex formation – biochemical, fluorescence polarization, C. elegans, dose response (AID 2802);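 further: fluorescence polarization of labeled TGE RNA bound by purified gld-1 protein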
[5] = target: T2, RNA-binding protein pos-1 (Caenorhabditis elegans, UniProt G5EF15); assay: disruptors of C. elegans POS-1 RNA interaction – biochemical, fluorescence polarization, dose response (AID 1964);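 further: purified POS-1 fused to maltose binding protein made in E. coli; potency of compounds blocking POS-1 binding to fluorescent RNA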
T2 sequence (G5EF15 whole entry): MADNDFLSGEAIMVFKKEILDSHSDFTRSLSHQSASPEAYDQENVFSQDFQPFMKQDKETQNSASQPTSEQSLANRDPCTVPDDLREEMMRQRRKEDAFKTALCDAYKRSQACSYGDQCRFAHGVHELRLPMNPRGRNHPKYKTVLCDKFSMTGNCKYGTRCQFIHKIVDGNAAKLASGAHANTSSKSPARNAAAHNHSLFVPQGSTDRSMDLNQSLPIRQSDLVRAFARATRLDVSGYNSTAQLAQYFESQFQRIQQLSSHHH

[6] = target: T3, Zinc finger protein mex-5 (Caenorhabditis elegans, UniProt Q9XUB2); assay: potency of MEX-5 RNA-binding blockers – biochemical, C. elegans, fluorescence polarization, dose response (AID 1960)
T3 sequence (Q9XUB2 whole entry): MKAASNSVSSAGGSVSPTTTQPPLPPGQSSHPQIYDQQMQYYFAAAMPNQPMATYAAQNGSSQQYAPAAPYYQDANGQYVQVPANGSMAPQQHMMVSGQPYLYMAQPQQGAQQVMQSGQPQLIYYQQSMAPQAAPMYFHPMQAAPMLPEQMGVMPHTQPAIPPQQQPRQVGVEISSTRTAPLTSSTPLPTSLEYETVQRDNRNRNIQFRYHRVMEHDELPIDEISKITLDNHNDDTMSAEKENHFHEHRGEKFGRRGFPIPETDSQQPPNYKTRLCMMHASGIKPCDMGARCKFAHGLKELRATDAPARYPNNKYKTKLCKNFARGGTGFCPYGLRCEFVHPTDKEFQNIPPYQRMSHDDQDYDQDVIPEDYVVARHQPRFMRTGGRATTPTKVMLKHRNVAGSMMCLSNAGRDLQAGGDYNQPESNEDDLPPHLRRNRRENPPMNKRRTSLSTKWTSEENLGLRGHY

[7] = target: Photoreceptor-specific nuclear receptor (Homo sapiens, UniProt Q9Y5X4); type: functional;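 further: potency for compounds that break the NR2E3 corepressor complex and count as activators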
[8] = target: Peroxisome proliferator-activated receptor gamma/Nuclear receptor corepressor 2 (Homo sapiens, UniProt P37231+Q9Y618); type: functional
Melanocortin receptor 4 = Melanocortin receptor 4 (Homo sapiens, UniProt P32245); assay: inhibitors of MC4R cAMP signaling – cell-based, TR-FRET, biased antagonists, dose response (AID 602298); type: functional;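 further: antagonist potency against agonist-stimulated cAMP production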
[9] = cAMP pathway inhibition in counterscreen cell line – TR-FRET cAMP detection, counter-screen for MC4R biased antagonist project, dose response (AID 602305); type: functional, cell-based;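 further: U2OS cells stimulated with forskolin near its EC80 as the cAMP inducer; potency is for inhibition of forskolin-stimulated cAMP signaling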
[10] = target: Melanin-concentrating hormone receptor 1 (Homo sapiens, UniProt Q99705); assay: Late-stage fluorescence-based counterscreen for antagonists of the G-protein coupled receptor 7 (GPR7): cell-based dose response assay to identify antagonists of the melanin-concentrating hormone receptor 1 (MCHR1). [Related pubchem assays (depositor defined):AID1861, AID1880, AID1952, AID2148, AID2251, AID2257, AID485339]; type: functional;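 further: stimulated with 30 nM MCH peptide agonist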
Cytochrome P450 2C19 = Cytochrome P450 2C19 (Homo sapiens, UniProt P33261); assay: qHTS Assay for Inhibitors and Substrates of Cytochrome P450 2C19. [Related pubchem assays: 410 ]; type: ADME; conditions: read-out: Potency
Cytochrome P450 2C9 = Cytochrome P450 2C9 (Homo sapiens, UniProt P11712); conditions: Potency
[11] = target: Eukaryotic translation initiation factor 4H (Homo sapiens, UniProt Q15056); assay: eIF4H binding inhibition – biochemical, uHTS, fluorescence polarization, translation initiation inhibitor project, primary screen (AID 2012)
[12] = Trypanosoma cruzi growth suppression in host cells – NIH3T3 host cells, beta-gal luminescence, confirmation (AID 2044); type: functional, cell-based;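 further: intracellular parasites grown in NIH/3T3 mouse fibroblasts as host cells; luminescent beta-galactosidase reporter signal from transgenic T. cruzi replicating inside host cells; inhibitors lower the luminescence signal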
[13] = NIH3T3 cell viability loss – ATP luminescence, mouse fibroblasts, counter-screen, dose response (AID 2010); type: functional, cell-based;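 further: cells exposed to compound for about 90 hours before reading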
[14] = target: Polyadenylate-binding protein 1 (Homo sapiens, UniProt P11940); assay: blockers of PABP interaction with poly(A) – biochemical, fluorescence polarization, […] (AID 2014)
[15] = target: Dual specificity protein phosphatase 3 (Homo sapiens, UniProt P51452); assay: inhibition constants for human DUSP3 – biochemical, colorimetric, SAR follow-up (AID 2004)
[16] = target: T4, Heat shock factor protein 1 (Mus musculus, UniProt P38532); assay: decrease of HSF1-responsive luciferase luminescence – cell-based, NIH3T3, dose retest, confirmation (AID 2382); type: functional;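 further: NIH3T3 fibroblasts with HSF1-driven luciferase reporter stressed by proteasome inhibitor MG132; luminescence from HSF1-driven luciferase expression after 8 hours of MG132 stress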
T4 sequence (P38532 whole entry): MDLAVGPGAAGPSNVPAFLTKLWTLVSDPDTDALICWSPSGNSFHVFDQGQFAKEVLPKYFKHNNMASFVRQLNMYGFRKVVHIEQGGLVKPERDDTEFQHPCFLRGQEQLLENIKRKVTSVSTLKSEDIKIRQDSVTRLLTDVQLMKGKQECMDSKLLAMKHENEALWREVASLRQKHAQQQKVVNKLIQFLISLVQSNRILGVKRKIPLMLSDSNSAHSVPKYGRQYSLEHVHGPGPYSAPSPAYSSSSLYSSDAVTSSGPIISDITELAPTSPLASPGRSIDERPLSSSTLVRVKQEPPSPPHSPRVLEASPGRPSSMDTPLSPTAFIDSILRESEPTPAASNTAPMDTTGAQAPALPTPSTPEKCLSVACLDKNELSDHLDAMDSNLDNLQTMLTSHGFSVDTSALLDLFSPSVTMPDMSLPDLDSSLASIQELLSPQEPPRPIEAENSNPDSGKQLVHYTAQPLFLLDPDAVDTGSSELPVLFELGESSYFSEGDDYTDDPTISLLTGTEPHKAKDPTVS

[17] = target: T5, Eukaryotic translation initiation factor 2-alpha kinase 3 (Homo sapiens, UniProt Q9NZJ5); assay: Dose response cell-based high-throughput screening assay to measure PERK inhibition. [Related pubchem assays: 1416 ]; type: functional
[18] = target: T5, Eukaryotic translation initiation factor 2-alpha kinase 3; assay: Counterscreen assay for PERK inhibitors: Dose response cell-based high throughput screening assay to measure inhibition of PERK at 6 hours. [Related pubchem assays: 1522, 1416 ]; type: functional
[19] = target: Metabotropic glutamate receptor 4 (Rattus norvegicus, UniProt P31423); assay: Modulation of the Metabotropic Glutamate Receptor mGluR4: Rat PAM Potency. [Related pubchem assays (depositor defined):AID2437, AID2807]; type: functional

T5 sequence (Q9NZJ5 whole entry): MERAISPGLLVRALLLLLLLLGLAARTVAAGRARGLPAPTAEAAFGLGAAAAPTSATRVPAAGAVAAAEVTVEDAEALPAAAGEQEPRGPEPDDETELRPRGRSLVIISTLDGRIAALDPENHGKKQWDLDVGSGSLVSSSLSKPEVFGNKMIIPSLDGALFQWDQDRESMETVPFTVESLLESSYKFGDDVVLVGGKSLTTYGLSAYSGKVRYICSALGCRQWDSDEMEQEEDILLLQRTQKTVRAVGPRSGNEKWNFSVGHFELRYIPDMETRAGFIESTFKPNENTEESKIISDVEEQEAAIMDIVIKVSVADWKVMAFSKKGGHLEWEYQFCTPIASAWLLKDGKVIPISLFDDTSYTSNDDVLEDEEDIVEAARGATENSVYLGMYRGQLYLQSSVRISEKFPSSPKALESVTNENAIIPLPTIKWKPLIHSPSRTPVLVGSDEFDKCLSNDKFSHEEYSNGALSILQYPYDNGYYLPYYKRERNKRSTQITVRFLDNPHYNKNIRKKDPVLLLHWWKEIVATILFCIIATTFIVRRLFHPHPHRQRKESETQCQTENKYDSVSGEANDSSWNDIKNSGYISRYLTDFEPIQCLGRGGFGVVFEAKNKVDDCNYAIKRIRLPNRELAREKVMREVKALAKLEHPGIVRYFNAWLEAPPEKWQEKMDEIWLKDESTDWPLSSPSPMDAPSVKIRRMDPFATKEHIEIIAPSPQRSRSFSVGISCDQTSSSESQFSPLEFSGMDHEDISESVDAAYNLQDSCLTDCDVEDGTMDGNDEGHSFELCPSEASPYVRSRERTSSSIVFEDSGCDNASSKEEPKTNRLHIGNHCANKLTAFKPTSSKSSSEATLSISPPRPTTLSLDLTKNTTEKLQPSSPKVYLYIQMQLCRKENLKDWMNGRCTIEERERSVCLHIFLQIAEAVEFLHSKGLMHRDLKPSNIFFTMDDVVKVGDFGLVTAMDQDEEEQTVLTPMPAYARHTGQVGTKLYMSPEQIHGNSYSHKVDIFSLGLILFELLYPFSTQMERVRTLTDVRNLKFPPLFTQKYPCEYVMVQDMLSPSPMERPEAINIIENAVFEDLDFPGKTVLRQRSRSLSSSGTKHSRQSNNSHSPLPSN
Protein Rev, sequence (P04618 whole entry): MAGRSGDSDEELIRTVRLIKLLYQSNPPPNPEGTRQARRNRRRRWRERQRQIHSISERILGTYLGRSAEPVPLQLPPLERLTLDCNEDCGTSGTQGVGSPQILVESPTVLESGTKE
Female germline-specific tumor suppressor gld-1, sequence (Q17339 whole entry, the tested form may be a part): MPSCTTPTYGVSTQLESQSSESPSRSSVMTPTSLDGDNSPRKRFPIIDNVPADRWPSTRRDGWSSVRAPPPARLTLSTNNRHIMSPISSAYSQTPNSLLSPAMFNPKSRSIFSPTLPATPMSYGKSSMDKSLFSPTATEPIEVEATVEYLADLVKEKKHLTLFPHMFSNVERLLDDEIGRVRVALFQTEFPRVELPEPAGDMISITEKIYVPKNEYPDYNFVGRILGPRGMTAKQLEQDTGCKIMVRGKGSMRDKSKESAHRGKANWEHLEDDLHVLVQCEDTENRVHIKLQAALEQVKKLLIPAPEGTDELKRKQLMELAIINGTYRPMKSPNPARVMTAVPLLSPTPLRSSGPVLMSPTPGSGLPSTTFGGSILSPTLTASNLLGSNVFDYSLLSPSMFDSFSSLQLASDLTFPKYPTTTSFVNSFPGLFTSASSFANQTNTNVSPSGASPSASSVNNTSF
Cytochrome P450 2C19, sequence (P33261 whole entry): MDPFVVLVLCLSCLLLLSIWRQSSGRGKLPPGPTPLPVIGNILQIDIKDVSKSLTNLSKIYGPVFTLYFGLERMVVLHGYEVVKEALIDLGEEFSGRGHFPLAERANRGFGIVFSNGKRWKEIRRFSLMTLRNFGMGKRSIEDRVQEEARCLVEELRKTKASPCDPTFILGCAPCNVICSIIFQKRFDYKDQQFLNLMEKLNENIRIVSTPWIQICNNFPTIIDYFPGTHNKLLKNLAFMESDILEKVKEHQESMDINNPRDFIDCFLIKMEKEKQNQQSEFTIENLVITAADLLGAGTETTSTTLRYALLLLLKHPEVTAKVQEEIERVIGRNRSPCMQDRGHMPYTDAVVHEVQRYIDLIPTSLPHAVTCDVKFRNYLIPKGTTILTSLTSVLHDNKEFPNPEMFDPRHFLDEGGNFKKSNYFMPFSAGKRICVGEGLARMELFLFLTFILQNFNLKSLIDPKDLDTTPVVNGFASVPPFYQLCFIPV
Melanocortin receptor 4, sequence (P32245 whole entry): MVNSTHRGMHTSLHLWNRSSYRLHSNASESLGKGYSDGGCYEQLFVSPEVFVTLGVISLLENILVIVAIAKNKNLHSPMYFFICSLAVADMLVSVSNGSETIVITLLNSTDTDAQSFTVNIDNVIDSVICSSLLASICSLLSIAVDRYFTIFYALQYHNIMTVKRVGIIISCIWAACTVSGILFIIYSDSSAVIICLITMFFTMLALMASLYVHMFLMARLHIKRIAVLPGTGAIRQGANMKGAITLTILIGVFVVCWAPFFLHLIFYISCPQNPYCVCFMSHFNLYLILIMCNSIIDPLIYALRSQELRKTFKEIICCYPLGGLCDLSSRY
Photoreceptor-specific nuclear receptor, sequence (Q9Y5X4 whole entry): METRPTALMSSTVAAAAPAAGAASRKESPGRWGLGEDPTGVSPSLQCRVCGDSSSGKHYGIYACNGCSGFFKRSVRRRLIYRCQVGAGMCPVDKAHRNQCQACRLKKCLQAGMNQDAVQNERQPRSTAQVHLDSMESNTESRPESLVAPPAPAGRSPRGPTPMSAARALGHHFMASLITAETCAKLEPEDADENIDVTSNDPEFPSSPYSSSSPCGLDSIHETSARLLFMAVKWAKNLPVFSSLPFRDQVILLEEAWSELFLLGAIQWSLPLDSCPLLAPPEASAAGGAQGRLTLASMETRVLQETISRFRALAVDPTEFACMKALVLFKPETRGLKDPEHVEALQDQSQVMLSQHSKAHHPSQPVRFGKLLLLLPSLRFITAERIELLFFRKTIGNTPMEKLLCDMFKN
Polyadenylate-binding protein 1, sequence (P11940 whole entry): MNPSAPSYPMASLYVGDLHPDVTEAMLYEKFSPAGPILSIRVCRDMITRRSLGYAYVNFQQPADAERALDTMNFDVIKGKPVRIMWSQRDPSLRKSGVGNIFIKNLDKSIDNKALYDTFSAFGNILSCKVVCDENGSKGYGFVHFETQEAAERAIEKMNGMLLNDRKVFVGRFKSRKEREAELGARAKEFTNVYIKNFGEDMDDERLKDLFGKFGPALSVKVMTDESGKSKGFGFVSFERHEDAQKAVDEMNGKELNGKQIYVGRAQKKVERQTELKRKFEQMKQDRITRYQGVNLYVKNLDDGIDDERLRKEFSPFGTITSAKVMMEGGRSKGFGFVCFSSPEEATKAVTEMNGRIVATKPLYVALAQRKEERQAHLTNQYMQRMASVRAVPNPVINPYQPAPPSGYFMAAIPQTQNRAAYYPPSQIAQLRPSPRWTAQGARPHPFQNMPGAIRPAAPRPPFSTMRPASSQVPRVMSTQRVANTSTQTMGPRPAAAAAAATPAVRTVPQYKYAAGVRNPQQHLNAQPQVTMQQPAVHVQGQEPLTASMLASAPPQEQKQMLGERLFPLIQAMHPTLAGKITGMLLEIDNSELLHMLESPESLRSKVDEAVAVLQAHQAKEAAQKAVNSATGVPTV
Melanin-concentrating hormone receptor 1, sequence (Q99705 whole entry): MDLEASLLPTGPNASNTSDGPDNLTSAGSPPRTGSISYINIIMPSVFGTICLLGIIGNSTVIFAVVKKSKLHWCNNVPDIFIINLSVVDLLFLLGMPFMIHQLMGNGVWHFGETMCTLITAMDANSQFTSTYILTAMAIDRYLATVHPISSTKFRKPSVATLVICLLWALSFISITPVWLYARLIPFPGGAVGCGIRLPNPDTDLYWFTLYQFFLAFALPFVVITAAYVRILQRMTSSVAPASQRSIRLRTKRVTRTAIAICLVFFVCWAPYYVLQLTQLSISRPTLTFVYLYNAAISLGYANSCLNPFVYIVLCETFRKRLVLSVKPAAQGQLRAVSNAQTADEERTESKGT
Lysosomal acid glucosylceramidase, sequence (P04062 whole entry): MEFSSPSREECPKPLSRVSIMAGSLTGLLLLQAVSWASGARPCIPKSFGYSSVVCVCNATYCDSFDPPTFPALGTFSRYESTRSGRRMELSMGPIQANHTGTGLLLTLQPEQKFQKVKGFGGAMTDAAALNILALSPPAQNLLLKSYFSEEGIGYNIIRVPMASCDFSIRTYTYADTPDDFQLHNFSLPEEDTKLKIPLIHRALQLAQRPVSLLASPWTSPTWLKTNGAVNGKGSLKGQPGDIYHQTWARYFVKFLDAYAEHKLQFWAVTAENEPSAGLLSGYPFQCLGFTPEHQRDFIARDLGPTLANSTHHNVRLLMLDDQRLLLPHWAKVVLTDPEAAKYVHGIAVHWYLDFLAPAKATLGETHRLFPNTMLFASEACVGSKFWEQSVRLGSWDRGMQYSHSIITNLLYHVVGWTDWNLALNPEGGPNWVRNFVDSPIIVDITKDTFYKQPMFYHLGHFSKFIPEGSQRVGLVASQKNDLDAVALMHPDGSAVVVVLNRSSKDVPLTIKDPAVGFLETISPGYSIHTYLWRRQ
Dual specificity protein phosphatase 3, sequence (P51452 whole entry): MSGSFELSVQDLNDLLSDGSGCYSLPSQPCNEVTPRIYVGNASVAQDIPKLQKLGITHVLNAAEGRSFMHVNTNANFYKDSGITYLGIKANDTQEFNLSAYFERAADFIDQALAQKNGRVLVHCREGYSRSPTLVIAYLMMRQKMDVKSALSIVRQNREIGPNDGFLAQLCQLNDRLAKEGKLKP

COc1ccc(-c2coc3c(OC)c(OC)cc(O)c3c2=O)cc1 [ISOTECTORIGENIN, 7-METHYL ETHER]
AC50 (Cytochrome P450 3A4): 39.8 µM (inconclusive)

COC(=O)c1cc(N2CCN(C)CC2)nc2ccccc12
AC50 (Salmon testes DNA): 137 µM (active)
AC50 (ORF 73): 59.9 µM (active)

CCC(C)n1cnc2c(c1=O)c1nc3ccccc3nc1n2Cc1ccc2c(c1)OCO2 (configuration not stated)
EC50 [1]: > 10 µM (not active)

CN(Cc1ccccc1)C(=O)C1CCCN(Cc2ccc([N+](=O)[O-])cc2)C1 (configuration not stated)
AC50 (Trypanosoma cruzi): 7.63 µM (active)

N#CC1(C#N)C2=C(CCCC2)NC(c2ccccc2)C1(C#N)C#N (configuration not stated)
EC50 [2]: 3.77 µM (active)
EC50 [3]: 7.92 µM (active)

O=C1CS/C(=C\[N+](=O)[O-])N1c1ccccc1
IC50 (Protein Rev): 3.03 µM (active)
IC50 [4]: > 59.6 µM (inactive)
EC50 [5]: > 300 µM (not active)
EC50 [6]: 190 µM (active)

O=C(O)c1cc(-c2ccc3c(c2)OCO3)nc2ccc(Br)cc12
IC50 [7]: > 39.8 µM (not active)
IC50 [8]: 1.76 µM (active)
IC50 (Melanocortin receptor 4): 35.7 µM (inactive)
IC50 [9]: > 64.6 µM (inactive)

Cc1ccc(-n2ncc(Cl)c(Oc3ccc(F)cc3F)c2=O)cc1
IC50 [10]: 17.4 µM (inactive)

CCCC[C@@H]1C[C@H]1C(NP(=O)(c1ccccc1)c1ccccc1)c1ccc(Cl)cc1 (some centres not stated)
AC50 (Cytochrome P450 2C19): 10 µM (inconclusive)
AC50 (Cytochrome P450 2C9): 15.8 µM (inconclusive)

COc1ccc(N=C(C)N(C)CCNS(=O)(=O)c2ccc(Cl)cc2)cc1Cl
IC50 [11]: > 100 µM (inactive)
EC50 [12]: 0.271 µM (active)
EC50 [13]: > 60 µM (not active)
IC50 [14]: 5.82 µM (active)

Cc1ccc(S(=O)(=O)N2CCN(C(=O)c3cccc(F)c3)CC2)cc1
Ki [15]: 39.4 µM (inactive)
EC50 [16]: > 195 µM (not active)

O=C(NNc1ccccc1F)c1ccccc1
EC50 [17]: > 55.7 µM (not active)
EC50 [18]: > 55.7 µM (not active)

O=C(Nc1ccc(N2C(=O)c3cccc(Cl)c3C2=O)c(Cl)c1)c1ccccn1
EC50 [19]: 0.03 µM (active)
